Data taken from US12180508B2, “Method of preparing in vitro-matured human intestinal organoids and use thereof” (KOREA RESEARCH INSTITUTE OF BIOSCIENCE AND BIOTECHNOLOGY, priority 2018, dated 2024).
Like-named read-outs stand apart in the source and are kept apart here. Each block holds one molecule with its values, some of them ahead of it.

How the values were obtained:
CFTR = molecular target: T1, CFTR (Homo sapiens, UniProt P13569); experiment: Forskolin-induced organoid swelling assay (CFTR function); assay type: cell-based; conditions: mature organoids, forskolin 25 uM, 120 minutes
T1 construct: To examine the function of CFTR present in mature intestine epithelial cells in organoid models; endogenous in cells; host or cells: hPSC-derived human intestinal organoids (control, co-cultured with Jurkat T cells, or IL-2-treated)
Description: To examine the function of CFTR present in mature intestine epithelial cells in organoid models, forskolin-induced organoid swelling assay was performed. Control and co-cultured or IL-2-treated hIOs (n=4) were treated with forskolin (25 uM, Merckmillopore), and then morphological observation was performed for 120 min at 20 min intervals through live imaging function of a microscope (IX83, Olympus). CFTR inhibitors (CFTRinh172, GlyH101) were co-treated, and morphological observation was performed for the same time. The size of organoids was calculated every hour, and mean values thereof were used to plot a graph.

p-STAT3 (Y705) = experiment: Phospho-STAT3 immunostaining of hIOs; assay type: cell-based, human; conditions: IL-2 treated Mat-hIOs; Stattic 1 μM or S3I-201 10 μM
Description: (§1) An immunofluorescence analysis was performed according to a known method (Kwak et al., Biochemical and biophysical research communications 457, 554-560, 2015). In detail, hPSCs and definitive endodermal cells were fixed in 4% paraformaldehyde (PFA) and then permeabilized with PBS containing 0.1% Triton X-100.
(§2) hIOs and tissues were fixed, cryo-protected in sucrose, and frozen using an optimal-cutting-temperature (OCT) compound (Sakura Finetek, Tokyo, Japan). Then, frozen sections were cut at a thickness of 10-20 μm using a cryostat microtome at −20° C. and permeabilized with PBS containing 0.1% Triton X-100 for immunofluorescence analysis.
(§3) In detail, after being blocked with 4% BSA, cells were incubated with primary antibodies at 4° C. overnight, and then incubated with secondary antibodies for 1 hr at room temperature. The used primary antibodies are as in Table 2. Paraffin sections were deparaffinized, subjected to antigen retrieval, and stained in a similar manner to OCT sections. DAPI was added to visualize nuclei. Slides were examined with an Axiovert 200M microscope (Carl Zeiss, Gottingen, Germany) or a fluorescence microscope (IX51, Olympus, Japan).

hPSC-derived hIOs = experiment: Growth / size (surface area, budding) of hPSC-derived hIOs; assay type: cell-based, human; conditions: for stimulation of IL-2 on hIO growth in presence of inhibitor: with IL-2, S31-201 10 μM, Stattic 1 μM, Rapamycin 10 nM; for growth of hIOs with many crypt-like budding structures: treatment with STAT3 activators
Description: To estimate the size of hIOs, surface areas of horizontal cross-sections of hIOs were measured.

[1] = molecular target: P-glycoprotein (P-gp)/MDR1 (Homo sapiens, UniProt P08183); conditions: paclitaxel 10 μM basolateral, 2 hr incubation
hIOs [2] = experiment: Immunofluorescence staining of marker proteins in hIOs; assay type: cell-based, human; conditions: colivelin treatment
Description: as §1, §2, §3

hIOs [3] = experiment: qPCR of intestinal maturation markers in hIOs; assay type: cell-based, human; conditions: colivelin treatment compared with control hIOs
Description: Total RNA was extracted from cells using an RNeasy Kit (Qiagen), and reverse-transcribed using a Superscript III cDNA synthesis kit (Invitrogen). qRT-PCR was performed by a method disclosed in a 7500 Fast Real-time PCR system (Applied Biosystems, Foster City, CA, USA) (Cho et al., Oncotarget 6, 23837-23844, 2015). All experiments were performed in triplicate, and CT value of each target gene was calculated using a software provided by the manufacturer. Nucleotide sequences of the used primers are as in Table 1.

P-glycoprotein (P-gp)/MDR1, sequence (P08183 whole entry): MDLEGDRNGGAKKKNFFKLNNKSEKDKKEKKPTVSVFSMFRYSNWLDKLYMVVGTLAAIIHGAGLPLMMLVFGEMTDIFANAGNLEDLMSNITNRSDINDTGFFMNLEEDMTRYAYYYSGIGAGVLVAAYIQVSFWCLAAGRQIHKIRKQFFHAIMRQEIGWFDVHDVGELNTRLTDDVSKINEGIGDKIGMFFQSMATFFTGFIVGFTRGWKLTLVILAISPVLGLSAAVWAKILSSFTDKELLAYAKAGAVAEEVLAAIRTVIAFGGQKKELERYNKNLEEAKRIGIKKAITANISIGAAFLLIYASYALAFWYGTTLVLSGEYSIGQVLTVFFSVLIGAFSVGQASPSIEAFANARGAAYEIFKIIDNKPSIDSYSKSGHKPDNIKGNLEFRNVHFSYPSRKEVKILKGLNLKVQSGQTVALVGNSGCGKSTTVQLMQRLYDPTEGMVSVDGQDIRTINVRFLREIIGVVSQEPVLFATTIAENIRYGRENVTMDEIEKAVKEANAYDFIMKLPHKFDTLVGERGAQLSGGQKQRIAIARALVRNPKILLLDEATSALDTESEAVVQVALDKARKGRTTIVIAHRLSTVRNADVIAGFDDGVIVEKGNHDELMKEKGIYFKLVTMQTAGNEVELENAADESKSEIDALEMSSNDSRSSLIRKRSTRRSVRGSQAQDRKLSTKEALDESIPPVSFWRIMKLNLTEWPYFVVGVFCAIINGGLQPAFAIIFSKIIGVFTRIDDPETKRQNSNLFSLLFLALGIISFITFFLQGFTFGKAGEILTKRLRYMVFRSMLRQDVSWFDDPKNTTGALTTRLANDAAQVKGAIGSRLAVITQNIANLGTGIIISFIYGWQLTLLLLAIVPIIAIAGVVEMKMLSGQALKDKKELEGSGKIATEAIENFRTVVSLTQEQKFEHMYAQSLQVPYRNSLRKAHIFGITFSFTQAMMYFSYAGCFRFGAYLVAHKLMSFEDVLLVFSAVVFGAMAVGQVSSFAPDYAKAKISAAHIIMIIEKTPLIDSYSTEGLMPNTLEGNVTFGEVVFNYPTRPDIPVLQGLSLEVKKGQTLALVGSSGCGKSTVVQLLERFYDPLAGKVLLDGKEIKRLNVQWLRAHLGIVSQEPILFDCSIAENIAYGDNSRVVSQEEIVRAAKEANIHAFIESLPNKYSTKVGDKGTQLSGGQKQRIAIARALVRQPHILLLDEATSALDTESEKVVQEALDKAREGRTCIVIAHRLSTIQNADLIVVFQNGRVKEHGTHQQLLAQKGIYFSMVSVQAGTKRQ
T1 sequence (P13569 whole entry): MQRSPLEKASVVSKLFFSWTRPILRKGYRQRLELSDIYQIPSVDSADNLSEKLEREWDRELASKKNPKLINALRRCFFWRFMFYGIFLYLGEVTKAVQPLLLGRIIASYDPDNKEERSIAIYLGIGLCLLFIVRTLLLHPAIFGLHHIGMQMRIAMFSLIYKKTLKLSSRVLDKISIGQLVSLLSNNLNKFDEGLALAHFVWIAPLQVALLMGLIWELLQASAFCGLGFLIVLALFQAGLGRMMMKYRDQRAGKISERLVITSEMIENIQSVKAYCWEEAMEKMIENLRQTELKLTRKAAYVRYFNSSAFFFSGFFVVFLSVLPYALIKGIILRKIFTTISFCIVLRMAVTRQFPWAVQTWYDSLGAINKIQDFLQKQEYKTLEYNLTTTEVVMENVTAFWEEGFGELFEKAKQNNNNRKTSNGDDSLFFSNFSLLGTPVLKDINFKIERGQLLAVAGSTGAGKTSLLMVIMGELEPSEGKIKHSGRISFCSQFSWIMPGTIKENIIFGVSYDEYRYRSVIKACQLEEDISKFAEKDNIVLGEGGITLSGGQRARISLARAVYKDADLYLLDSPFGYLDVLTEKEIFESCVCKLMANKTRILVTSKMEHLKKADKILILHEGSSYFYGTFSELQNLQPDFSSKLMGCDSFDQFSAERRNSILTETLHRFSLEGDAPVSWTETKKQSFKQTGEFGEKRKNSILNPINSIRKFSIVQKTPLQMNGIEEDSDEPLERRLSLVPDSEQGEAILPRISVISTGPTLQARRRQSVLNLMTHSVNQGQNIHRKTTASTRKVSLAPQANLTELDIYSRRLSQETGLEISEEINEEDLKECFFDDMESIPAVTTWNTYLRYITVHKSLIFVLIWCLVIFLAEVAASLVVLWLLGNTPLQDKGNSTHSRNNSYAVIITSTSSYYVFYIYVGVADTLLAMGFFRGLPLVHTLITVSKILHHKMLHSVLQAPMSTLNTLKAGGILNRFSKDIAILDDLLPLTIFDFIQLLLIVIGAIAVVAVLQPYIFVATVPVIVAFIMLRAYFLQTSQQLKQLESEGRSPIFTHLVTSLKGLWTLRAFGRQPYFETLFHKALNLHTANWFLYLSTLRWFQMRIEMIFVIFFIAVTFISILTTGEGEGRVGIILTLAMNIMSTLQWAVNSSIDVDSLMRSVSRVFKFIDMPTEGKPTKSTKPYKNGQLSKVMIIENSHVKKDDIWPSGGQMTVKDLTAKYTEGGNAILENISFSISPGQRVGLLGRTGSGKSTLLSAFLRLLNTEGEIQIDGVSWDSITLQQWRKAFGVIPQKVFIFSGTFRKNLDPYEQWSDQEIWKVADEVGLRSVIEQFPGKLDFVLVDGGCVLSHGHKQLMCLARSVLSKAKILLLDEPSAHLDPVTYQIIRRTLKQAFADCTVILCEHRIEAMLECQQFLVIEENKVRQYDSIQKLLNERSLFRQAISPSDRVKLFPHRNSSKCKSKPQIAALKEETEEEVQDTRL

Molecule: O=C(O)c1ccc(/C=C2\SC(=S)N(c3cccc(C(F)(F)F)c3)C2=O)cc1 [CFTRinh172]
forskolin-induced swelling effect under CFTR inhibitor (CFTR): completely blocked

Molecule: Cc1ccc(S(=O)(=O)OCC(=O)Nc2ccc(C(=O)O)c(O)c2)cc1 [S3I-201]
phosphorylation of STAT3 at tyrosine 705 (Y705) (p-STAT3 (Y705)): blocked
stimulation of IL-2 on hIO growth in presence of inhibitor (hPSC-derived hIOs): prevented

Molecule: O=[N+]([O-])c1ccc2c(c1)S(=O)(=O)C=C2 [Stattic]
phosphorylation of STAT3 at tyrosine 705 (Y705) (p-STAT3 (Y705)): blocked
stimulation of IL-2 on hIO growth in presence of inhibitor (hPSC-derived hIOs): prevented

B1: IL-22: another known STAT3 activator, cytokine (protein, UniProt Q9GZX6 34-179, looked up)
Interleukin-22: APISSHCRLDKSNFQQPYITNRTFMLAKEASLADNNTDVRLIGEKLFHGVSMSERCYLMKQVLNFTLEEVLFPQSDRFQPYMQEVVPFLARLSNRLSTCHIEGDDLHIQRNVQKLKDTVKKLGESGEIKAIGELDLLFMSLRNACI
growth of hIOs with many crypt-like budding structures (hPSC-derived hIOs): promoted the growth

Second part, led by results:

forskolin-induced swelling effect under CFTR inhibitor (CFTR): completely blocked
Molecule: O=C(CNc1ccc2ccccc2c1)N/N=C/c1cc(Br)c(O)c(Br)c1O [GlyH101]

concentration of paclitaxel at the apical side, increase compared with control hIOs ([1]; IL-2-treated hIOs): ~3 fold
concentration of paclitaxel at the apical side, increase compared with control hIOs ([1]; co-cultured hIOs): approximately 2.3 fold
Molecule: CC(=O)O[C@H]1C(=O)[C@@]2(C)[C@H]([C@H](OC(=O)c3ccccc3)[C@]3(O)C[C@H](OC(=O)[C@H](O)[C@@H](NC(=O)c4ccccc4)c4ccccc4)C(C)=C1C3(C)C)[C@]1(OC(C)=O)CO[C@@H]1C[C@@H]2O [paclitaxel]

protein expression of Ki-67, OLFM4, MUC13 and KRT20 (hIOs [2]): increased
Molecule: Colivelin
growth of hIOs with many crypt-like budding structures (hPSC-derived hIOs): promoted the growth
size of hIO (hPSC-derived hIOs; various concentrations of colivelin): increased
expression of intestinal maturation markers (hIOs [3]): increased
